Tests used:
NCI-H716 cells = experiment: Extracellular oxygen consumption rate assay (Seahorse XF96); format: cell-based, human
Protocol: Briefly, NCI-H716 cells were seeded in XF 96-well cell culture microplates (Seahorse Bioscience) at 6.0×10^4 cells per well in 150 μl of growth medium and then incubated at 37° C./5% CO2 for 24 hr. A Seahorse Bioscience instrument model XF96 was used to measure the rate of change of dissolved oxygen in the media surrounding the cells. All procedures followed manufacturer's instructions. […] Conversely, treatment with the FXR antagonist guggulsterone reduced basal respiratory rates and the FCCP-induced maximum respiration rate (FIGS. 9A and 9B). To examine the effects of FXR activity on the secretion of GLP-1, the metabolic changes induced in human L cells was measured after treatment with the FXR agonist, fexaramine and an FXR antagonist, guggulsterone. Treatment of L cells with fexaramine (1 μM for 24 hours) lead to an increase in the oxygen consumption rate (OCR), consistent with increased mitochondrial activity and consequently, an increased energetic state (FIG. 9A). The reverse effect was seen after treatment with the FXR antagonist, guggulsterone, with lower OCR after drug treatment.

[1] = in vitro permeability in Caco2 cells; conditions: human; for Papp A→B at 2 h, 10 μM: Caco2 cells, assay conc. 10 μM
[2] = test system: pancreatic islets from ob/ob mice; experiment: Insulin secretion assay on isolated pancreatic islets (ex vivo); format: cell-based, mouse; conditions: islets, 100 nM Exendin-4
Protocol: Mouse pancreatic islets were isolated from ob/ob mice according to a method used for rats traditionally. Briefly, 0.5 mg/ml collagenase P (Roche) diluted in HBSS buffer was injected through the common bile duct and the perfused pancreas was dissected and incubated in water bath with 37° C. for 21 minutes. Digested exocrine cells and intact islets were separated using Histopaque-1077 (SIGMA) with centrifugation by 900 g for 15 minutes and intact islets were picked up manually.
Insulin release from intact islets was monitored using batch incubation methods.
Isolated pancreatic islets were cultured over-night with […] supplemented with 10% (v/v) fetal bovine serum and 1% (v/v) Antibiotics-antimycotic solution, were pre-cultured at 37° C. for 30 minutes in Krebs Ringer bicarbonate buffer (KRBH) containing 129.4 mM NaCl, 3.7 mM KCl, 2.7 mM CaCl2, 1.3 mM KH2PO4, 1.3 mM MgSO4, 24.8 mM NaHCO3 (equilibrated with 5% CO2, 95% O2, pH7.4), 10 mM HEPES and 0.2% (v/v) BSA (fraction V) with 3 mM glucose. N ext, the pancreatic islets were incubated for 30 minutes KRBH buffer (500 μl/10 islets) with 3 mM or 20 mM glucose with or without 100 nM Exendin-4 to determine insulin secretion levels. At the end of the incubation period, islets were pelleted by centrifugation, and aliquots of the buffer were sampled. The amounts of insulin were determined by Rat/mouse Insulin ELISA KIT (Millipore) for mice islets.

enteroendocrinal L cells = experiment: Gene expression analysis (QPCR) in enteroendocrinal L cells; format: cell-based, human
ob/ob mice = experiment: gene expression (RNA-Seq, QPCR) in tissues of treated ob/ob mice; format: in vivo, mouse; conditions: INT-777 60 mg/kg P.O. for 5 weeks
Protocol: Total RNA was isolated from cell pellets treated with RNAlater using the RNA mini kit (Qiagen) and treated with DNaseI (Qiagen) for 30 minutes at room temperature. Sequencing libraries were prepared from 100-500 ng total RNA using the TruSeq RNA Sample Preparation Kit v2 (Illumina) according to the manufacturer's protocol. Briefly, mRNA was purified, fragmented, and used for first-, then second-strand cDNA synthesis followed by adenylation of 3′ ends. Samples were ligated to unique adapters and subjected to PCR amplification. Mulitplexed libraries were then validated using the 2100 BioAnalyzer (Agilent), normalized, and pooled for sequencing. RNA-Seq libraries prepared from two biological replicates for each experimental condition were sequenced on the Illumina HiSeq 2500 using bar-coded multiplexing and a 100 bp read length.
Image analysis and base calling were performed with Illumina CASAVA-1.8.2. This yielded a median of 29.9M usable reads per sample. Short read sequences were mapped to a UCSC mm9 reference sequence using the RNA-seq aligner STAR. Known splice junctions from mm9 were supplied to the aligner and de novo junction discovery was also permitted. Differential gene expression analysis, statistical testing and annotation were performed using Cuffdiff 2. Transcript expression was calculated as gene-level relative abundance in fragments per kilobase of exon model per million mapped fragments and employed correction for transcript abundance bias. RNA-Seq results for genes of interest were also explored visually using the UCSC Genome Browser.

[3] = test system: human enteroendocrinal L cells (NCI-H716); experiment: In vitro GLP-1 secretion assay; format: cell-based; conditions: L cells pretreated with compound
Protocol: In vitro GLP-1 secretion assay was performed in human enteroendocrinal L cells (NCI-H716). For each secretion assay, cells were seeded at 1×10^5 cells/ml (1 ml/well) in a matrigel-coated 24-well plate. Prior to GLP-1 secretion assay, cells were pre-treated with DMSO, 1 μM Fex, or 1 μM Fex-D overnight. Cells were deprived in Krebs buffer (with 0.1% BSA) with dipeptidyl peptidase (DPP)-4 inhibitor ([…] sitagliptin). GLP-1 was measured with a commercial kit (EZGLP1T-36K, Millipore). For in vivo GLP-1 secretion, each animal was gavaged with 25 mg per kg of body weight sitagliptin 60-minutes before glucose load. Blood was collected from the tail vein at the indicated intervals, and transferred to serum collection tubes containing sitagliptin.

isolated islets = experiment: gene expression after direct ex vivo treatment of isolated islets; format: cell-based, mouse; conditions: 24 hours ex vivo, XL335 1 μM, Fex 1 μM
Protocol: Leptin-deficient ob/ob mice were treated daily with vehicle, Fex, or the analogue Fex-D (50 mg/kg) via P.O. for 14 days (A) Chemical structures of fexaramine and Fex-D (B) Schematic of the experimental design (C) Serum glucose levels (D) Glucose tolerance test (E) Insulin secretion in vivo (F) GLP-1 secretion in vivo (G) Heatmap showing hierarchal clustering of gene expression changes in islet induced by Fex (100 mg/kg, 4 wks) and FexD (50 mg/kg, 2 weeks) treatment in ob/ob mice (in vivo); by treatment of islets with XL335 (1 μM), Fex (1 μM), mFgf15 and hFgf19 (24 hours ex vivo); and mFgf15 (0.15 mg/kg, 2 weeks) and INT777 (Tgr5, 60 mg/kg, 4 weeks) treatment of ob/ob mice (in vivo). Gene expression was measured by RNA-Seq and changes are expressed as Z-score. (H) Ven diagram of changes in gene expression in pancreatic islets induced by FEX (100 mg/kg for 5 weeks) and FEX-D (50 mg/kg for 14 days). […] Data represent the mean±STD. Statistical analysis was performed with the Student's t test. *p<0.05, **p<0.01.
Next, primary islets were isolated from mice treated by Fex-D to compare gene expression changes.

in vitro = conditions: human
[4] = Caco-2, A-B Permeability Ranking
[5] = Caco-2, Mean Papp, A-B, 2 hour incubation

Papp B→A at 2 h, 10 μM ([1]; Caco-2)	recovery at 2 h, 10 μM ([1]; Caco-2)	Papp A→B at 2 h, 10 μM [1, 4]	Papp A→B at 2 h, 10 μM [1, 5]	Compound	further results
				C/C=C1\C(=O)C[C@H]2[C@@H]3CCC4=CC(=O)CC[C@]4(C)[C@H]3CC[C@]12C [guggulsterone]	basal respiratory rates and the FCCP-induced maximum respiration rate (NCI-H716 cells; L cells, guggulsterone 10 μM for 24 hr): reduced; oxygen consumption rate (OCR) (NCI-H716 cells; human L cells, 24 hours, fexaramine 1 μM, guggulsterone 10 μM): lower
0.922 ×10⁻⁶ cm/s	92.7%	< 1 ×10⁻⁶ cm/s	0.274 ×10⁻⁶ cm/s	CNC(=C[N+](=O)[O-])NCCSCc1ccc(CN(C)C)o1 [Ranitidine]	efflux ratio at 2 h, 10 μM ([1]; Caco-2): 3.36
0.064 ×10⁻⁶ cm/s	67.1%	< 1 ×10⁻⁶ cm/s	0.0962 ×10⁻⁶ cm/s	[2H]C(c1ccc(-c2ccc3c(cnn3C)c2)cc1F)N(C(=O)C1CCCCC1)c1cccc(/C=C/C(=O)OC)c1 (stereo not shown) [NSSK 00089]	
				Exendin-4: GLP-1 agonist	ex vivo insulin secretion in presence of GLP-1 agonist [2]: further potentiated
				CC[C@H]1[C@@H](O)[C@@H]2[C@H](C[C@H](O)[C@]3(C)[C@@H]([C@H](C)C[C@H](C)C(=O)O)CC[C@@H]23)[C@@]2(C)CC[C@@H](O)C[C@@H]12 [INT-777]	SHP expression (FXR target gene) (enteroendocrinal L cells): not; proglucagon expression (enteroendocrinal L cells): selectively induced; expression of the GLP-1 receptor in islets (ob/ob mice): significantly increased; GLP-1 secretion in response to a glucose challenge [3]: increased
0.0399 ×10⁻⁶ cm/s	69.9%	< 1 ×10⁻⁶ cm/s	0.0104 ×10⁻⁶ cm/s	[2H]C(c1ccc(-c2ccc3c(cnn3C)c2)cc1)N(C(=O)C1CCCCC1)c1cc(F)cc(/C=C/C(=O)OC)c1 (stereo not shown) [NSSK 00096]	
0.23 ×10⁻⁶ cm/s	192%	< 1 ×10⁻⁶ cm/s	0.0294 ×10⁻⁶ cm/s	[2H]C(c1ccc(-c2ccc(N(C)C)cc2)cc1)N(C(=O)[C@@H]1C[C@@H]2CC[C@H]1C2)c1cc(F)cc(/C=C/C(=O)OC)c1 (stereo partly shown) [NSSK 00024]	
				hFgf19: hFgf19 protein used for direct ex vivo treatment of isolated islets	transcriptional changes seen in islets in vivo with Fex and Fex-D (isolated islets): not observed
				CC(C)OC(=O)C1=CN(C(=O)c2ccc(F)c(F)c2)CC(C)(C)c2c1[nH]c1ccccc21 [XL335]	transcriptional changes seen in islets in vivo with Fex and Fex-D (isolated islets): not observed
				CC(=O)CC(c1ccccc1)c1c(O)c2ccccc2oc1=O (stereo not shown) [Warfarin]	Papp B→A at 2 h, 10 μM (in vitro; Caco-2): 29.8 ×10⁻⁶ cm/s; efflux ratio at 2 h, 10 μM (in vitro; Caco-2): 0.695; recovery at 2 h, 10 μM (in vitro; Caco-2): 101%; Papp A→B at 2 h, 10 μM (in vitro; [4]): > 1 ×10⁻⁶ cm/s; Papp A→B at 2 h, 10 μM (in vitro; Caco-2, Mean Papp, A-B): 42.8 ×10⁻⁶ cm/s

Reference: US20180000768A1, “INTESTINAL FXR AGONISM ENHANCES GLP-1 SIGNALING TO RESTORE PANCREATIC BETA CELL FUNCTIONS” (Salk Institute for Biological Studies, priority 2015, published 2018)
